Measured values from patent publication US20230026772A1, “DIBENZOPYRAN AMPK ACTIVATOR COMPOUNDS, COMPOSITIONS, METHODS AND USES THEREOF” (SOCIETE DES PRODUITS NESTLE S.A., priority 2019, published 2023).

Assays:
[1] = system: AMPK (phosphorylation of ACC) in U-2 OS Flp-In T-REx mammalian cells; test: pACC HTRF (Cisbio) assay in U-2 OS Flp-In T-REx cells; format: cell-based; conditions: varying concentrations, 30 mins at 37 C, FIG. 2
Description: U-2 OS cells were treated with varying concentrations of compound 1 or compound 2 for 30 mins at 37 C. Phosphorylation of ACC was assessed using the HTRF Cisbio (pACC kit).
U-2 OS Flp-In T-REx cells were seeded at 50 K in a 96-well plate and left overnight at 37 C in DMEM GlutaMAX (Thermo Fisher Scientific) supplemented with 10% (vol/vol) FBS and 100 U/ml penicillin G, and 100 μg/ml streptomycin. Cells were treated for 30 mins with varying concentrations of Compound 1 in media lacking FBS and then cells were lysed in 50 μl of Cisbio lysis buffer #1 supplemented with blocking solution as per the manufacturer's protocol (Cisbio). Cells were lysed for 30 mins at room temperature before 16 μl of lysate was incubated with 4 μl of the HTRF antibodies (1:40 dilution of the acceptor and donor (p) ACC antibodies, as per the manufacturers protocol). Lysates were incubated overnight with the antibodies before 665 nm/620 nm ratio was determined using a MolecularDevices i3 plate reader (with a HTRF cartridge add-on). The results are plotted as fold activation compared to the respective AMPK complex without any compound.

[2] = system: AMPK complexes containing the β2 isoform subunit; test: pACC HTRF assay in AMPKβ1/β2 double knockout U-2 OS cells stably expressing β2 WT; format: cell-based, human; conditions: AMPKβ1β2 double knockout cells stably expressing β2 WT isoform, varying concentrations, 30 mins at 37 C; FIG. 4
Description: (§1) U-2 OS cells AMPKβ1β2 double knockout cells stably expressing AMPK β1 or β2 were treated with varying concentrations of Compound 1 or compound 2 for 30 mins at 37 C.
(§2) Phosphorylation of ACC was assessed using the HTRF Cisbio (pACC kit).
We took AMPKβ1/β2 double knockout cells, and re-introduced the expression of human β1 WT or β2 WT isoforms. […] Cells stably expressing β1 WT or β2 WT were treated with varying concentrations of compound 1 and compound 2, and subjected to the pACC HTRF (Cisbio) assay to determine the level of phosphorylation of the AMPK substrate, ACC, in cell lysates, as in example 2. […] This activation profile is characteristic of activators that bind to the ADaM site and consistent with previous studies showing that ADaM-site activators have poorer activation of β2-containing complexes in vitro and in cells.

[3] = system: AMPK complexes containing β1 S108A mutation at the ADaM site; test: pACC HTRF assay in AMPKβ1/β2 double knockout U-2 OS cells stably expressing β1 S108A mutant; format: cell-based, human; conditions: AMPKβ1β2 double knockout cells stably expressing β1 S108A mutant, varying concentrations, 30 mins at 37 C; FIG. 3
Description: (§3) The β1 WT or β1 S108A mutant were stably expressed in AMPKβ1β2 double knockout cells and treated with varying concentrations of compound 1 or compound 2 for 30 mins at 37 C. Phosphorylation of ACC was assessed using the HTRF Cisbio (pACC kit).
(§4) AMPKβ1/β2 double knockout U-2 OS Flp-In™ T-Rex™ cell lines were generated and cells were genotyped and analysed by Western blotting to confirm that there was a complete knockout of AMPKβ1/β2. We took these AMPKβ1/β2 double knockout cells, and re-introduced the expression of human β1 wild-type (WT) or a β1 Serine 108 to alanine mutation (S108A). This was achieved using the Flp-In™ system (Invitrogen) present in this cell line and stable cells expressing β1 WT or a β1 S108A mutant were generated according to the manufacturers' protocols.
(§5) Cells stably expressing β1 WT or a β1 S108A mutant were treated with varying concentrations of compound 1 and compound 2 and subjected to the pACC HTRF (Cisbio) assay to determine the level of phosphorylation of the AMPK substrate, ACC, in cell lysates, as in Example 2.

[4] = system: AMPK complexes containing β1 WT subunit; test: pACC HTRF assay in AMPKβ1/β2 double knockout U-2 OS cells stably expressing β1 WT; format: cell-based, human; conditions: AMPKβ1β2 double knockout cells stably expressing β1 WT, varying concentrations, 30 mins at 37 C; FIG. 3 and FIG. 4
Description: as §3, §1, §2, §4, §5
We took AMPKβ1/β2 double knockout cells, and re-introduced the expression of human β1 WT or β2 WT isoforms. […]

AMPKα2β1γ1 complex = molecular target: T1, AMPKα2β1γ1 complex (Homo sapiens, UniProt P54646+Q9Y478); test: HTRF KinEASE activity assay with bacterially-expressed, phosphorylated purified AMPKα2β1γ1; format: biochemical; conditions: varying concentrations, 30 mins incubation, cell free; FIG. 1
T1 construct: His; made in house
T1 sequence (P54646 whole entry): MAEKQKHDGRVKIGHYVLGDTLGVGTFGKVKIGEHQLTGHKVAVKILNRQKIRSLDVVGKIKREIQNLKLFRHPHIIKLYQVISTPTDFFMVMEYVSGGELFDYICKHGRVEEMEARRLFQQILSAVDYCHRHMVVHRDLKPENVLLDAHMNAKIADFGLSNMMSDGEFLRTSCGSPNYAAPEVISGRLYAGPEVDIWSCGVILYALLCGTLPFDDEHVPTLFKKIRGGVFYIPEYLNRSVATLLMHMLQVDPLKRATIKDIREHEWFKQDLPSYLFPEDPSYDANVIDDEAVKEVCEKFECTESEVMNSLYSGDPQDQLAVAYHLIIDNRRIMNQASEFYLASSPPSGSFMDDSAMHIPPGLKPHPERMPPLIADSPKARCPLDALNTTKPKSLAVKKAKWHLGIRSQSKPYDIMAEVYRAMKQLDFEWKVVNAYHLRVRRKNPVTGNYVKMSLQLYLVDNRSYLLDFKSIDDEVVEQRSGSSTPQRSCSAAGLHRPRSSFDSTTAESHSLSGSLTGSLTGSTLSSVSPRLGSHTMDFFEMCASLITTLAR
T1 sequence (Q9Y478 whole entry): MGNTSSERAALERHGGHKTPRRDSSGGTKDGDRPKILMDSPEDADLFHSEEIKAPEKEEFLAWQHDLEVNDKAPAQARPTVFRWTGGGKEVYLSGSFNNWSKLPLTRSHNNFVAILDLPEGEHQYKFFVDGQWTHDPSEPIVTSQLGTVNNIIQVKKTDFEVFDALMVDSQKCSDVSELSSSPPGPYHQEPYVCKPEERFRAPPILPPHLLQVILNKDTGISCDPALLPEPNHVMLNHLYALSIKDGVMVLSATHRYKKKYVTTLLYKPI
T1 sequence (P54619 whole entry partner): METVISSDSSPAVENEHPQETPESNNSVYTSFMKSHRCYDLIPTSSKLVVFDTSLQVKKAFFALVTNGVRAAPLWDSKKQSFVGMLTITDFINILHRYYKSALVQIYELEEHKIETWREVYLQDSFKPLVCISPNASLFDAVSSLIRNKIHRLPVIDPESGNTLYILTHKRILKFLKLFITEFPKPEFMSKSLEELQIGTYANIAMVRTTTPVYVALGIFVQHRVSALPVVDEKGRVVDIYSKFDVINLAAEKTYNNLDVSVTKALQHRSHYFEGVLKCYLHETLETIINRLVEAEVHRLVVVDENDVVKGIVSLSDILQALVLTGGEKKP
Description: Varying concentrations of compound 1 and compound 2 were incubated with phosphorylated purified AMPK α2β1γ1 for 30 mins. AMPK activity was determined using the HTRF KinEASE assay kit and results are presented as the ratio of 665/620 nm (STK1 phosphorylation).
The AMPKα2β1γ1 complex was expressed in bacteria and purified through the His-α subunit by nickel purification, purified through gel filtration and phosphorylated by incubation with CaMKKβ, and then further purified through a final gel filtration purification step. Phosphorylated purified AMPK was incubated with varying concentrations of ligand for 30 mins along with substrate and reagents from the HTRF-KinEASE Cisbio assay kit (STK S1 Kit). Phosphorylation of the substrate was measured by incubating with donor and acceptor antibodies for 2 h at room temperature as per the manufacturer's protocol (Coulerie et al., (2016), J Nat Prod. 2016 Nov. 23; 79(11):2856-2864. Epub 2016 Oct. 28.) and phosphorylated peptide detected by performing HTRF. […] Compound 1 is 3-methoxy-6H-benzo[c]chromene-1,8-diol and Compound 2 is 8-methoxy-6H-benzo[c]chromene-3,10-diol.

| SMILES | Phosphorylation of ACC (fold activation relative to untreated cells) [1] | Phosphorylation of ACC (pACC, fold increase relative to untreated cells) [2] | Phosphorylation of ACC (pACC, fold increase relative to untreated cells) [3] | Phosphorylation of ACC (pACC, fold increase relative to untreated cells) [4] | AMPK activity (665 nm/620 nm ratio, STK1 substrate phosphorylation) (AMPKα2β1γ1 complex) |
| --- | --- | --- | --- | --- | --- |
| COc1cc(O)c2c(c1)OCc1cc(O)ccc1-2 [Compound 1, 3-methoxy-6H-benzo[c]chromene-1,8-diol] | increase the phosphorylation of the AMPK substrate, ACC, in a dose-dependent manner | not able to increase pACC | not able to increase pACC | able to dose-dependently increase pACC | allosterically activate AMPKα2β1γ1 in a dose-dependent manner |
| COc1cc(O)c2c(c1)COc1cc(O)ccc1-2 [Compound 2, 8-methoxy-6H-benzo[c]chromene-3,10-diol] | increase the phosphorylation of the AMPK substrate, ACC, in a dose-dependent manner | not able to increase pACC | not able to increase pACC | able to dose-dependently increase pACC | allosterically activate AMPKα2β1γ1 in a dose-dependent manner |
